Where “and” joins values, the source holds several entries; their conditions need not be identical. Equal entries are not always repeated. Where two headings read alike, the source gives them in different places.
Columns and labels:
DiMT protein = type: biochemical, Dirofilaria immitis; details: for IC50: read-out: IC 50 (μM ± SEM)
D. immitis microfilariae = test: In vitro efficacy against live D. immitis microfilariae (motility, completely immotile %); type: cell-based, Dirofilaria immitis; details: for Completely Immotile Microfilariae (%): single experiments; for effect on microfilariae: up to 120 h of culture
mammalian cells = details: read-out: Cytotoxicity IC50, ref Zhang et al., [30]; cited from earlier work

CO[C@@]12[C@H](COC(N)=O)C3=C(C(=O)C(C)=C(N)C3=O)N1C[C@H]1[C@@H]2N1C (stereo partly shown) [NSC56410]
Mean Percent Inhibition (DiMT protein; 50 µM): 18.0% and 26.7% and 20.5% | Mean Percent Inhibition, Average (DiMT protein; 50 µM): 21.7% | Mean Percent Inhibition (DiMT protein; 100 µM): 26.6% and 33.3% and 21.3% | Mean Percent Inhibition, Average (DiMT protein; 100 µM): 27.1% | Mean Percent Inhibition (DiMT protein; 150 µM): 31.0% and 35.0% and 25.0% | Mean Percent Inhibition, Average (DiMT protein; 150 µM): 30.3% | Mean Percent Inhibition (DiMT protein; 200 µM): 34.6% and 41.9% and 31.9% | Mean Percent Inhibition, Average (DiMT protein; 200 µM): 36.1% | Mean Percent Inhibition (DiMT protein; 250 µM): 41.2% and 38.8% and 51.8% | Mean Percent Inhibition, Average (DiMT protein; 250 µM): 43.9% | Mean Percent Inhibition (DiMT protein; 300 µM): 48.3% and 48.6% and 46.0% | Mean Percent Inhibition, Average (DiMT protein; 300 µM): 47.6% | Mean Percent Inhibition (DiMT protein; 350 µM): 53.8% and 59.3% and 53.7% | Mean Percent Inhibition, Average (DiMT protein; 350 µM): 55.6% | Mean Percent Inhibition (DiMT protein; 400 µM): 62.5% and 63.8% | Mean Percent Inhibition, Average (DiMT protein; 400 µM): 62.9% | IC50 (DiMT protein): 300 ± 2.5 µM | Mean completely Immotile (%) (D. immitis microfilariae; 25 µM, 0 h): 0% | Mean completely Immotile (%) (D. immitis microfilariae; 25 µM, 24 h): 2.33% | Mean completely Immotile (%) (D. immitis microfilariae; 25 µM, 48 h): 7.67% | Mean completely Immotile (%) (D. immitis microfilariae; 25 µM, 72 h): 12.5% | Mean completely Immotile (%) (D. immitis microfilariae; 25 µM, 96 h): 30.5% | Mean completely Immotile (%) (D. immitis microfilariae; 25 µM, 120 h): 45% | Mean completely Immotile (%) (D. immitis microfilariae; 50 µM, 0 h): 0% | Mean completely Immotile (%) (D. immitis microfilariae; 50 µM, 24 h): 13% | Mean completely Immotile (%) (D. immitis microfilariae; 50 µM, 48 h): 21.33% | Mean completely Immotile (%) (D. immitis microfilariae; 50 µM, 72 h): 54.33% | Mean completely Immotile (%) (D. immitis microfilariae; 50 µM, 96 h): 79.33% | Mean completely Immotile (%) (D. immitis microfilariae; 50 µM, 120 h): 97.67% | Mean completely Immotile (%) (D. immitis microfilariae; 75 µM, 0 h): 0% | Mean completely Immotile (%) (D. immitis microfilariae; 75 µM, 24 h): 38.67% | Mean completely Immotile (%) (D. immitis microfilariae; 75 µM, 48 h): 59.33% | Mean completely Immotile (%) (D. immitis microfilariae; 75 µM, 72 h): 86% | Mean completely Immotile (%) (D. immitis microfilariae; 75 µM, 96 h): 98.33% | Mean completely Immotile (%) (D. immitis microfilariae; 75 µM, 120 h): 100% | Mean completely Immotile (%) (D. immitis microfilariae; 100 µM, 0 h): 0% | Mean completely Immotile (%) (D. immitis microfilariae; 100 µM, 24 h): 61% | Mean completely Immotile (%) (D. immitis microfilariae; 100 µM, 48 h): 77.67% | Mean completely Immotile (%) (D. immitis microfilariae; 100 µM, 72 h): 98% | Mean completely Immotile (%) (D. immitis microfilariae; 100 µM, 96 h): 100% | Mean completely Immotile (%) (D. immitis microfilariae; 100 µM, 120 h): 100% | EC50 (D. immitis microfilariae; Dirofilaria immitis, 96 h, read-out: Anti-parasitic EC50 (μM), 96 h post-treatment): 32.1 µM | EC50 (D. immitis microfilariae; read-out: Anti-parasitic EC50, 96 h post-treatment): 32.2 µM | Completely Immotile Microfilariae (%) (D. immitis microfilariae; 25 µM, 0 h): 0% | Completely Immotile Microfilariae (%) (D. immitis microfilariae; 25 µM, 24 h): 2% and 4% and 1% | Completely Immotile Microfilariae (%) (D. immitis microfilariae; 25 µM, 48 h): 8% and 10% and 5% | Completely Immotile Microfilariae (%) (D. immitis microfilariae; 25 µM, 72 h): 15% and 12.5% and 10% | Completely Immotile Microfilariae (%) (D. immitis microfilariae; 25 µM, 96 h): 35% and 29.5% and 27% | Completely Immotile Microfilariae (%) (D. immitis microfilariae; 25 µM, 120 h): 50% and 44% and 41% | Completely Immotile Microfilariae (%) (D. immitis microfilariae; 50 µM, 0 h): 0% | Completely Immotile Microfilariae (%) (D. immitis microfilariae; 50 µM, 24 h): 15% and 11.5% and 12.5% | Completely Immotile Microfilariae (%) (D. immitis microfilariae; 50 µM, 48 h): 23% and 21% and 20% | Completely Immotile Microfilariae (%) (D. immitis microfilariae; 50 µM, 72 h): 56% and 50% and 57% | Completely Immotile Microfilariae (%) (D. immitis microfilariae; 50 µM, 96 h): 80% and 76% and 82% | Completely Immotile Microfilariae (%) (D. immitis microfilariae; 50 µM, 120 h): 100% and 95% and 98% | Completely Immotile Microfilariae (%) (D. immitis microfilariae; 75 µM, 0 h): 0% | Completely Immotile Microfilariae (%) (D. immitis microfilariae; 75 µM, 24 h): 36% and 40% | Completely Immotile Microfilariae (%) (D. immitis microfilariae; 75 µM, 48 h): 55% and 60% and 63% | Completely Immotile Microfilariae (%) (D. immitis microfilariae; 75 µM, 72 h): 83% and 88% and 87% | Completely Immotile Microfilariae (%) (D. immitis microfilariae; 75 µM, 96 h): 100% and 95% | Completely Immotile Microfilariae (%) (D. immitis microfilariae; 75 µM, 120 h): 100% | Completely Immotile Microfilariae (%) (D. immitis microfilariae; 100 µM, 0 h): 0% | Completely Immotile Microfilariae (%) (D. immitis microfilariae; 100 µM, 24 h): 60% and 58% and 65% | Completely Immotile Microfilariae (%) (D. immitis microfilariae; 100 µM, 48 h): 75% and 78% and 80% | Completely Immotile Microfilariae (%) (D. immitis microfilariae; 100 µM, 72 h): 95% and 100% and 99% | Completely Immotile Microfilariae (%) (D. immitis microfilariae; 100 µM, 96 h): 100% | Completely Immotile Microfilariae (%) (D. immitis microfilariae; 100 µM, 120 h): 100% | effect on microfilariae (D. immitis microfilariae): killing effect | IC50 (mammalian cells): 188 µM

CO[C@@H]1/C=C\O[C@]2(C)Oc3c(C)c(O)c4c(O)c(c(CN(C)C)c(O)c4c3C2=O)NC(=O)/C(C)=C\C=C[C@@H](C)[C@@H](O)[C@H](C)[C@@H](O)[C@H](C)[C@H](OC(C)=O)[C@@H]1C [NSC145612]
Mean Percent Inhibition (DiMT protein; 50 µM): 68.4% and 38.5% and 36.2% | Mean Percent Inhibition, Average (DiMT protein; 50 µM): 47.7% | Mean Percent Inhibition (DiMT protein; 100 µM): 57.6% and 50.0% and 61.2% | Mean Percent Inhibition, Average (DiMT protein; 100 µM): 56.3% | Mean Percent Inhibition (DiMT protein; 150 µM): 66.2% and 62.4% and 82.9% | Mean Percent Inhibition, Average (DiMT protein; 150 µM): 70.5% | Mean Percent Inhibition (DiMT protein; 200 µM): 77.2% and 75.4% and 75.6% | Mean Percent Inhibition, Average (DiMT protein; 200 µM): 76.1% | Mean Percent Inhibition (DiMT protein; 250 µM): 84.0% and 87.6% and 81.7% | Mean Percent Inhibition, Average (DiMT protein; 250 µM): 84.4% | IC50 (DiMT protein): 62.1 ± 1.8 µM | Mean completely Immotile (%) (D. immitis microfilariae; 25 µM, 0 h): 0% | Mean completely Immotile (%) (D. immitis microfilariae; 25 µM, 24 h): 4.67% | Mean completely Immotile (%) (D. immitis microfilariae; 25 µM, 48 h): 10.17% | Mean completely Immotile (%) (D. immitis microfilariae; 25 µM, 72 h): 25% | Mean completely Immotile (%) (D. immitis microfilariae; 25 µM, 96 h): 38.33% | Mean completely Immotile (%) (D. immitis microfilariae; 25 µM, 120 h): 48.67% | Mean completely Immotile (%) (D. immitis microfilariae; 50 µM, 0 h): 0% | Mean completely Immotile (%) (D. immitis microfilariae; 50 µM, 24 h): 12% | Mean completely Immotile (%) (D. immitis microfilariae; 50 µM, 48 h): 26.33% | Mean completely Immotile (%) (D. immitis microfilariae; 50 µM, 72 h): 43.33% | Mean completely Immotile (%) (D. immitis microfilariae; 50 µM, 96 h): 64% | Mean completely Immotile (%) (D. immitis microfilariae; 75 µM, 0 h): 0% | Mean completely Immotile (%) (D. immitis microfilariae; 75 µM, 24 h): 24.33% | Mean completely Immotile (%) (D. immitis microfilariae; 75 µM, 48 h): 87.33% | Mean completely Immotile (%) (D. immitis microfilariae; 75 µM, 72 h): 96.67% | Mean completely Immotile (%) (D. immitis microfilariae; 75 µM, 96 h): 100% | Mean completely Immotile (%) (D. immitis microfilariae; 75 µM, 120 h): 100% | Mean completely Immotile (%) (D. immitis microfilariae; 100 µM, 0 h): 0% | Mean completely Immotile (%) (D. immitis microfilariae; 100 µM, 24 h): 55.33% | Mean completely Immotile (%) (D. immitis microfilariae; 100 µM, 48 h): 94.33% | Mean completely Immotile (%) (D. immitis microfilariae; 100 µM, 72 h): 100% | Mean completely Immotile (%) (D. immitis microfilariae; 100 µM, 96 h): 100% | Mean completely Immotile (%) (D. immitis microfilariae; 100 µM, 120 h): 100% | EC50 (D. immitis microfilariae; 96 h post-treatment, read-out: Anti-parasitic EC50): 32.2 µM | Completely Immotile Microfilariae (%) (D. immitis microfilariae; 25 µM, 0 h): 0% | Completely Immotile Microfilariae (%) (D. immitis microfilariae; 25 µM, 24 h): 5% and 3% and 6% | Completely Immotile Microfilariae (%) (D. immitis microfilariae; 25 µM, 48 h): 10% and 8% and 12.5% | Completely Immotile Microfilariae (%) (D. immitis microfilariae; 25 µM, 72 h): 28% and 22% and 25% | Completely Immotile Microfilariae (%) (D. immitis microfilariae; 25 µM, 96 h): 41% and 36% and 38% and 50% | Completely Immotile Microfilariae (%) (D. immitis microfilariae; 25 µM, 120 h): 50% and 44% and 52% | Completely Immotile Microfilariae (%) (D. immitis microfilariae; 50 µM, 0 h): 0% | Completely Immotile Microfilariae (%) (D. immitis microfilariae; 50 µM, 24 h): 10% and 12% and 14% | Completely Immotile Microfilariae (%) (D. immitis microfilariae; 50 µM, 48 h): 25% and 23% and 31% | Completely Immotile Microfilariae (%) (D. immitis microfilariae; 50 µM, 72 h): 40% and 44% and 46% | Completely Immotile Microfilariae (%) (D. immitis microfilariae; 50 µM, 96 h): 60% and 64% and 68% and 100% | Completely Immotile Microfilariae (%) (D. immitis microfilariae; 50 µM, 120 h): 100% | Completely Immotile Microfilariae (%) (D. immitis microfilariae; 75 µM, 0 h): 0% | Completely Immotile Microfilariae (%) (D. immitis microfilariae; 75 µM, 24 h): 21% and 28% and 24% | Completely Immotile Microfilariae (%) (D. immitis microfilariae; 75 µM, 48 h): 85% and 90% and 87% | Completely Immotile Microfilariae (%) (D. immitis microfilariae; 75 µM, 72 h): 95% and 97% and 98% | Completely Immotile Microfilariae (%) (D. immitis microfilariae; 75 µM, 96 h): 100% | Completely Immotile Microfilariae (%) (D. immitis microfilariae; 75 µM, 120 h): 100% | Completely Immotile Microfilariae (%) (D. immitis microfilariae; 100 µM, 0 h): 0% | Completely Immotile Microfilariae (%) (D. immitis microfilariae; 100 µM, 24 h): 50% and 56% and 60% | Completely Immotile Microfilariae (%) (D. immitis microfilariae; 100 µM, 48 h): 93% and 95% | Completely Immotile Microfilariae (%) (D. immitis microfilariae; 100 µM, 72 h): 100% | Completely Immotile Microfilariae (%) (D. immitis microfilariae; 100 µM, 96 h): 100% | Completely Immotile Microfilariae (%) (D. immitis microfilariae; 100 µM, 120 h): 100% | effect on microfilariae (D. immitis microfilariae): killing effect | IC50 (mammalian cells): 302 µM

From article PMC11392244, “Characterization of a unique catechol-O-methyltransferase as a molecular drug target in parasitic filarial nematodes” (PLOS Neglected Tropical Diseases, 2024)
